Source: patent EP2792360A1, “(1aR,12bS)-8-cyclohexyl-11-fluoro-N-((1-methylcyclopropyl)sulfonyl)-1a-((3-methyl-3,8-diazabicyclo[3.2.1]oct-8-yl)carbonyl)-1,1a,2,2b-tetrahydrocyclopropa[d]indolo[2,1-a][2]benzazepine-5-carboxamide for use in treating HCV” (IP Gesellschaft für Management mbH, priority 2013, dated 2014)
Structures can show the parent of a compound that is named as a salt.

How the values were obtained:
[1] = VT-XRPD / VH-XRPD / drying stability of HCl salt forms of Formula V; conditions: ca. 16 hours; XRPD
Experimental: The humidity was controlled by mixing streams of dry and wet nitrogen, with a total flow rate of 200 mL.min-1 The relative humidity was measured by a calibrated Rotronic probe (dynamic range of 1.0 - 100%RH), located near the sample. The weight change (mass relaxation) of the sample as a function of %RH was constantly monitored by the microbalance (accuracy ±0.005 mg). Approximately 5 - 20 mg of sample was placed in a tared mesh stainless steel basket under ambient conditions. […] A moisture sorption isotherm was performed as outlined below (2 scans giving 1 complete cycle). […] Data analysis was undertaken in Microsoft Excel using DVS Analysis Suite v6.0.0.7. […] XRPD: X-Ray Powder Diffraction patterns were collected either on a Bruker AXS C2 GADDS diffractometer or a Bruker AXS D8 diffractometer. […] The beam divergence, i.e. the effective size of the X-ray beam on the sample, was approximately 4 mm. […] In a typical experiment, the sampleis exposed to the X-ray beam for 120 seconds. The software used for data collectionwas GADDS for WNT 4.1.16 and the data were analyzed and presented using Diffrac PlusEVA vl 1.0.0.2 or vl3.0.0.2. Ambient conditions: Samples run under ambient conditions were prepared as flat plate specimens using powder as received without grinding. Approximately 1 - 2 mg of the sample was lightly pressed on aglass slide to obtain a flat surface. Non-ambient conditions: Samples run under non-ambient conditions were mounted on a silicon wafer with heat-conducting compound. The sample was then heated to the appropriate temperatureat 10.C.min_1and subsequently held isothermally for 1 minute before data collection was initiated. On a Bruker D8 diffractometer, the following parameters were used: Cu Ka radiation (40 kV, 40 mA), θ - 20 goniometer, and divergence of V4 and receiving slits, a Ge monochromator and a Lynxeye detector. […] The software used for data collection was Diffrac Plus XRD Commander v2.5.0 and the data were analyzed and presented using Diffrac Plus EVA vl 1.0.0.2 or vl3.0.0.2. Samples were run under ambient conditions as flat plate specimens using powder as received. The sample was gently packed into a cavity cut into polished, zero-background (510) silicon wafer. The sample was rotated in its own plane during analysis. The details of the data collection are: · Angular range: 2 to 42°2Θ, · Step size: 0.05°2Θ, · Collection time: 0.5 s/step.

[2] = Solid form stability of forms of compound of formula (IV) (Temperature / Humidity Controlled XRPD, storage, suspension); type: physicochemical
Experimental: The term"XRPD" denotes the analytical method of X-Ray Powder Diffraction. XRPD patterns were recorded at ambient conditions in transmission geometry with a STOE STADI P diffractometer (Cu K alpha radiation source, primary monochromator, position sensitive detector, angular range 3° to 42° 2Theta, approximately 60 minutes total measurement time). The repeatability of the angular values is in the range of 2Theta ±0.2°. The term "approximately" given in combination with an angular value denotes the repeatability which is in the range of 2Theta ±0.2°. The samples were prepared and analyzed without further processing (e.g. grinding or sieving) of the substance. The relative XRPD peak intensity is dependent upon many factors such as structure factor, temperature factor, crystallinity, polarization factor, multiplicity, and Lorentz factor. Relative intensities may vary considerably from one measurement to another due to preferred orientation effects. Humidity Controlled XRPD analyses were performed in reflection geometry with a Siemens D5000 Diffractometer (Cu radiation source, Ni K beta filter, Scintillation detector, angular range 3° to 42° 2Theta, approximately 180 minutes total measurement time per humidity level). The diffractometer is equipped with an MRI (Materials Research Instruments) humidity chamber. The humidity within the chamber is adjusted with an ANSYCO humidity controller (SYCOS H-HOT). For single crystal structure analysis a single crystal sample was mounted in a nylon loop on a goniometer and measured at ambient conditions. Alternatively, the crystal was cooled in a nitrogen stream during measurement. Data were collected on a GEMINI R Ultra diffractometer from Oxford Diffraction. Cu-radiation of 1.54 A wavelength was used for data collection. Data was processed with the Oxford Diffraction CRYSALIS software. The crystal structure was solved and refined with standard crystallographic software. In this case the program ShelXTL from Bruker AXS (Karlsruhe) was used. The abbreviation "FWHM" denotes the full width at half maximum, which is a width of a peak (e.g. appearing in a spectrum, particularly in an XRPD pattern) at its half height. The term "sharp Bragg diffraction peak" in connection with X-ray diffraction patterns denotes a peak which is observed if Bragg' s law of diffraction is fulfilled. Generally, the FWHM of a sharp Bragg diffraction peak is less than 0.5° 2-theta. The term "amorphous halo" in connection with X-ray diffraction patterns denotes an approximately bell- shaped diffraction maximum in the X-ray powder diffraction pattern of an amorphous material. The FWHM of an amorphous halo is on principle larger than the FWHM of the peak of crystalline material. The terms "FTIR" and "IR" denote the analytical method of infrared spectroscopy. The IR-spectra of the samples are recorded as film of a Nujol suspension consisting of approx. 5 mg of sample and approx. 5 mg of Nujol (mineral oil) between two sodium chloride plates (cross section 13 mm) in transmittance with a FTIR- spectrometer. The spectra were recorded in spectral range between 4000 cm"1 and 600 cm"1, resolution 2 cm"1, and 300 coadded scans on a Magna 860 (thermo/Nicolet) equipped with a DTGS detector. The term "Raman" denotes the analytical method of Raman spectroscopy. For recording Raman spectra, the samples were spread on a glass slide. Raman spectra were recorded in the range of 150-3800 cm"1 with an ARAMIS (HoribaJobinYvon) Raman microscope equipped with a Peltier cooled CCD detector, at excitation of 633 nm, a 1200 1/mm grating, a x50 objective and with 3 exposures of 3s, or 7s for weak Raman scatterers. The term "DSC" denotes the analytical method of Differential Scanning Calorimetry. DSC thermograms were recorded using a Mettler-Toledo™ differential scanning calorimeter DSC820, DSC821 or DSC1 with a FRS05 sensor. […]

stability of the salt form on drying under vacuum at room temperature [1]	Structure (SMILES)	humidity at which rapid reconversion into Form B is observed [2] [rH]	thermodynamic stability of the solid form [2]
unstable salt form	Nc1nc2cc(-c3ccc4ncc(C(=O)N5CCOCC5)n4c3)ccc2o1 [HCl Pattern 3, (6-(2-aminobenzo[d]oxazol-5-yl)imidazo[1,2-a]pyridin-3-yl)(morpholino)methanone]		
partially reverted to the free base	Nc1nc2cc(-c3ccc4ncc(C(=O)N5CCOCC5)n4c3)ccc2o1 [HCl Pattern 1, (6-(2-aminobenzo[d]oxazol-5-yl)imidazo[1,2-a]pyridin-3-yl)(morpholino)methanone]		
	Cc1onc(-c2ccc(F)cc2)c1COc1ccc(C(=O)N2CCS(=O)(=O)CC2)cn1 [Form E ({drug4e}), (1,1-dioxo-1lambda6-thiomorpholin-4-yl)-{6-[3-(4-fluoro-phenyl)-5-methyl-isoxazol-4-ylmethoxy]-pyridin-3-yl]-methanone]	> 5	only limited stability at ambient conditions
